Data reported in ChEMBL document CHEMBL4257227, “Deubiquitinase inhibitors and methods for use of the same” (2016).
Blank lines part the entries; values can stand above or below the molecule they belong to. The source made the active and inactive calls. The calls are words filed in the database; no cut-off is given here.

What was measured:
SK-MEL19 [1] = experiment: Induction of apoptosis in human SK-MEL-19 cells assessed as increase in PARP cleavage after 48 to 72 hrs; type: functional, cell-based
A-375 [2] = experiment: Ratio of IC50 for human A375 cells with USP5 knock down to IC50 for human A375 cells; type: functional
A-375 [3] = experiment: Induction of apoptosis in human A375 cells with USP5 knock down assessed as increase in FAS protein expression; type: functional, cell-based
A-375 [4] = experiment: Induction of apoptosis in human A375 cells with USP5 and p53 knock down assessed as increase in PARP cleavage; type: functional, cell-based
A-375 [5] = experiment: Induction of apoptosis in human A375 cells with USP5 and p53 knock down assessed as increase in p53 protein expression; type: functional, cell-based
A-375 [6] = experiment: Induction of apoptosis in human A375 cells with USP5 knock down assessed as increase in Bid protein expression; type: functional, cell-based
A-375 [7] = experiment: Induction of apoptosis in human A375 cells with USP5 knock down assessed as increase in p53 protein expression; type: functional, cell-based
A-375 [8] = experiment: Induction of apoptosis in human A375 cells with USP5 knock down assessed as increase in Bax protein expression; type: functional, cell-based
SK-MEL19 [9] = experiment: Increase in FASBax protein expression in human SK-MEL-19 cells after 24 hrs; type: functional, cell-based
SK-MEL19 [10] = experiment: Increase in protein ubiquitination in human SK-MEL-19 cells after 24 hrs; type: functional, cell-based
A-375 [11] = experiment: Induction of apoptosis in human A375 cells with USP5 and p53 knock down assessed as increase in Bid protein expression; type: functional, cell-based
SK-MEL19 [12] = experiment: Increase in FAS protein expression in human SK-MEL-19 cells after 24 hrs; type: functional, cell-based
SK-MEL19 [13] = experiment: Induction of apoptosis in human SK-MEL-19 cells assessed as increase in Bid protein level after 48 to 72 hrs; type: functional, cell-based
A-375 [14] = experiment: Induction of apoptosis in human A375 cells with USP5 and p53 knock down assessed as increase in Bax protein expression; type: functional, cell-based
A-375 [15] = experiment: Induction of apoptosis in human A375 cells with USP5 knock down by annexin V staining based flow cytometry; type: functional
SK-MEL19 [16] = experiment: Reduction in DRS levels in human SK-MEL-19 cells; type: functional, cell-based
A-375 [17] = experiment: Induction of apoptosis in human A375 cells with USP5 knock down assessed as increase in PARP cleavage; type: functional, cell-based
A-375 [18] = experiment: Induction of FAS protein expression in Vemurafenib resistant human A375 cells; type: functional, cell-based
SK-MEL19 [19] = experiment: Induction of apoptosis in human SK-MEL-19 cells assessed as increase in caspase 8 cleavage after 48 to 72 hrs; type: functional, cell-based
A-375 [20] = experiment: Induction of apoptosis in human A375 cells with USP5 and p53 knock down assessed as increase in FAS protein expression; type: functional, cell-based
[21] = AUClast in Balb/c mouse at 5 mg/kg, iv by LC-MS analysis; type: ADME, organism-based; set-up: dose 5 mg/kg, time 0 - last, route intravenous; conditions: in vivo
[22] = Half life in ip dosed Balb/c mouse by LC-MS analysis; type: ADME, organism-based; conditions: in vivo
[23] = AUClast in Balb/c mouse at 10 mg/kg, po by LC-MS analysis; type: ADME, organism-based; set-up: dose 10 mg/kg, route oral, time 0 - last; conditions: in vivo
[24] = Plasma concentration in Balb/c mouse at 10 mg/kg, po after 0.5 hrs by LC-MS analysis; type: ADME, organism-based
[25] = Plasma concentration in Balb/c mouse at 5 mg/kg, iv after 2 hrs by LC-MS analysis; type: ADME, organism-based
[26] = Plasma concentration in Balb/c mouse at 10 mg/kg, po after 2 hrs by LC-MS analysis; type: ADME, organism-based
[27] = Plasma concentration in Balb/c mouse at 5 mg/kg, iv after 7 hrs by LC-MS analysis; type: ADME, organism-based
[28] = Plasma concentration in Balb/c mouse at 5 mg/kg, iv after 0.5 hrs by LC-MS analysis; type: ADME, organism-based
[29] = Plasma concentration in Balb/c mouse at 10 mg/kg, po after 4 hrs by LC-MS analysis; type: ADME, organism-based
[30] = Plasma concentration in Balb/c mouse at 10 mg/kg, po after 7 hrs by LC-MS analysis; type: ADME, organism-based
[31] = Plasma concentration in Balb/c mouse at 5 mg/kg, iv after 4 hrs by LC-MS analysis; type: ADME, organism-based

SMILES: CCCS(=O)(=O)Nc1ccc(F)c(C(=O)c2c[nH]c3ncc(-c4ccc(Cl)cc4)cc23)c1F [VEMURAFENIB]
Activity (SK-MEL19 [1]): Active
Ratio IC50 (A-375 [2]): 2
Activity (A-375 [3]): Active
Activity (A-375 [4]): inactive
Activity (A-375 [5]): inactive
Activity (A-375 [6]): Active
Activity (A-375 [7]): Active
Activity (A-375 [8]): Active
Activity (SK-MEL19 [9]): Active
Activity (SK-MEL19 [10]): Active
Activity (A-375 [11]): inactive
Activity (SK-MEL19 [12]): Active
Activity (SK-MEL19 [13]): Active
Activity (A-375 [14]): inactive
fold change (FC) (A-375 [15]): >3
Activity (SK-MEL19 [16]): Active
Activity (A-375 [17]): Active
Activity (A-375 [18]): inactive
Activity (SK-MEL19 [19]): Active
Activity (A-375 [20]): inactive

AUC(0-t) [21]: 692 to 993 ng·h/mL
half-life [22]: 30 to 60 min
AUC(0-t) [23]: 126 to 280 ng·h/mL
concentration at 0.5 h [24]: 50.8 to 117 ng/mL
concentration at 2 h [25]: 79.6 to 99.1 ng/mL
concentration at 2 h [26]: 10.6 to 40.6 ng/mL
concentration at 7 h [27]: 33.7 to 71.4 ng/mL
concentration at 0.5 h [28]: 301 to 397 ng/mL
concentration at 4 h [29]: 13.3 to 30 ng/mL
concentration at 7 h [30]: 11.4 to 15.9 ng/mL
concentration at 4 h [31]: 33.4 to 63.1 ng/mL
SMILES: CCCC(NC(=O)/C(C#N)=C/c1ccc2cccnc2n1)c1ccccc1 (stereo unspecified)
